In patent US10125137B2, “Benzofurans substituted with bicyclic secondary benzamide as HCV inhibitors” (BRISTOL-MYERS SQUIBB COMPANY, priority 2015, dated 2018):
Read-outs that look alike come from different tables or passages of the source.

Key:
[1] = test system: genotype 1b (Con-1) HCV replicon; assay: HCV Replicon Luciferase Assay; assay type: cell-based; conditions: Hepatitis C virus, 72 h, genotype 1b HCV replicon, Huh-7, Renilla luciferase, 3 days
Description: Cell Lines. The cell lines used to evaluate compounds consist of a human hepatocyte derived cell line (Huh-7) that constitutively expresses a genotype 1b (Con-1) HCV replicon or a genotype 1b (Con-1) HCV replicon with an asparagine replacing the cysteine at amino acid 316, or a genotype 2a (JFH-1) replicon, containing a Renilla luciferase reporter gene. These cells were maintained in Dulbecco's modified Eagle medium (DMEM) containing 10% FBS, 100 U/mL penicillin/streptomycin and 1.0 mg/mL G418.
HCV Replicon Luciferase Assay. To evaluate compound efficacy, titrated compounds were transferred to sterile 384-well tissue culture treated plates, and the plates were seeded with HCV replicon cells (50 μL at a density of 2.4×10^3 cells/well) in DMEM containing 4% FBS (final DMSO concentration at 0.5%). After 3 days incubation at 37° C., cells were analyzed for Renilla Luciferase activity using the EnduRen substrate (Promega cat #E6485) according to the manufacturer's directions. Briefly, the EnduRen substrate was diluted in DMEM and then added to the plates to a final concentration of 7.5 μM. The plates were incubated for at least 1 h at 37° C. then read on a Viewlux Imager (PerkinElmer) using a luminescence program. The 50% effective concentration (EC50) was calculated using the four-parameter logistic formula noted above.

HCV = conditions: single agent: transient decrease then rebound; cited from earlier work
[2] = extended dosing of combination regimens with interferon and ribavirin; cited from earlier work

Row | SMILES | EC50 ([1]; read-out: EC50 1b (class)) [µM] | further results
1 | CNC(=O)c1c(-c2ccc(F)cc2)oc2cc(N(CCF)S(C)(=O)=O)c(-c3cccc(C(=O)N4CCn5c(nnc5C(F)(F)F)C4)c3)cc12 [Compound 1002] | 0.1 to 1 | 
2 | CNC(=O)c1c(-c2ccc(F)cc2)oc2cc(N(CCF)S(C)(=O)=O)c(-c3cccc(C(=O)N4CCC5(CCN(C(=O)OC(C)(C)C)C5)C4)c3)cc12 (stereo not drawn) [Compound 1008] | < 0.1 | EC50 ([1]; read-out: EC50 (uM) 1b): 0.0964 µM
3 | CNC(=O)c1c(-c2ccc(F)cc2)oc2cc(N(CCF)S(C)(=O)=O)c(-c3cccc(C(=O)N4CCC5CC54)c3)cc12 (stereo not drawn) [Compound 1006] | < 0.1 | 
4 | CNC(=O)c1c(-c2ccc(F)cc2)oc2cc(N(CCF)S(C)(=O)=O)c(-c3cccc(C(=O)N4[C@H](C(N)=O)C[C@@H]5C[C@@H]54)c3)cc12 [Compound 1007] | > 1 | 
5 | CNC(=O)c1c(-c2ccc(F)cc2)oc2cc(N(CCO)S(C)(=O)=O)c(C3CC3)cc12 [HCV-796] |  | HCV RNA levels in patients (HCV): reduce HCV RNA levels; hepatic toxicity [2]: hepatic toxicity
6 | CNC(=O)c1c(-c2ccc(F)cc2)oc2cc(N(CCF)S(C)(=O)=O)c(-c3cccc(C(=O)N4CCn5cccc5C4c4cccnc4)c3)cc12 (stereo not drawn) [Compound 1005] | < 0.1 | 
7 | CNC(=O)c1c(-c2ccc(F)cc2)oc2cc(N(CCF)S(C)(=O)=O)c(-c3cccc(C(=O)N4CCc5[nH]ncc5C4)c3)cc12 [Compound 1004] | 0.1 to 1 | EC50 ([1]; read-out: EC50 (uM) 1b): 0.975 µM
8 | CNC(=O)c1c(-c2ccc(F)cc2)oc2cc(N(CCF)S(C)(=O)=O)c(-c3cccc(C(=O)N4CC5CCN(C(=O)OC(C)(C)C)C5C4)c3)cc12 (stereo not drawn) [Compound 1009] | 0.1 to 1 | 
9 | CNC(=O)c1c(-c2ccc(F)cc2)oc2cc(N(CCF)S(C)(=O)=O)c(-c3cccc(C(=O)N4CCc5nc[nH]c5C4)c3)cc12 [Compound 1003] | > 1 | 
10 | CNC(=O)c1c(-c2ccc(F)cc2)oc2cc(N(CCF)S(C)(=O)=O)c(-c3cccc(C(=O)N4CC5CCN(C(=O)OC(C)(C)C)CC5C4)c3)cc12 (stereo not drawn) [Compound 1010] | < 0.1 | 
11 | CNC(=O)c1c(-c2ccc(F)cc2)oc2cc(N(CCF)S(C)(=O)=O)c(-c3cccc(C(=O)N4CCn5cc(C(F)(F)F)nc5C4)c3)cc12 [Compound 1001] | < 0.1 | EC50 ([1]; read-out: EC50 (uM) 1b): 0.0349 µM
